In brackets after ≈: the same amount, converted by molar mass. Read-outs that look alike come from different tables or passages of the source.
Assays:
[1] = Approximate solvent solubility of free base; format: physicochemical
Procedure: The following procedure was carried out: 25, 50 and 100 μL aliquots of the appropriate solvent system was added to 20 mg of free base. The experiments were checked for dissolution. Where dissolution was not observed, the experiments were stirred at 40° C. to check for dissolution at elevated temperature. Aliquots of solvent were added until dissolution was observed, or 2 mL of total solvent was added. Any clear solutions were uncapped and allowed to evaporate at ambient temperature (ca. 20° C.) and pressure. Any slurries were isolated by centrifugation and the solids were analyzed by XRPD.

[2] = tested on: caspase 3/7 in H526 cells; experiment: CaspaseGlo-3/7 activation; format: cell-based, human
Procedure: (§1) Plates were removed from incubator and treated with CaspaseGlo-3/7 (Promega, Inc) following manufacturer specifications. Plates were then read on a Biotech luminometer with 1 sec/well integration. Results were converted to Microsoft Excel and transferred to GraphPad Prism for Analysis (FIG. 22D).
as §1, with “from the” for “from”, “incubator at each specified timepoint” for “incubator”, “on” for “on a”, “27A-C).” for “22D).”

[3] = biological target: T1, human OAT3 (Homo sapiens, UniProt Q8TCC7); experiment: SLC transporter inhibition in HEK293 cells; format: in vitro ADME
T1 construct: expressed in transfected cells; host or cells: HEK293
T1 sequence (Q8TCC7 1-542): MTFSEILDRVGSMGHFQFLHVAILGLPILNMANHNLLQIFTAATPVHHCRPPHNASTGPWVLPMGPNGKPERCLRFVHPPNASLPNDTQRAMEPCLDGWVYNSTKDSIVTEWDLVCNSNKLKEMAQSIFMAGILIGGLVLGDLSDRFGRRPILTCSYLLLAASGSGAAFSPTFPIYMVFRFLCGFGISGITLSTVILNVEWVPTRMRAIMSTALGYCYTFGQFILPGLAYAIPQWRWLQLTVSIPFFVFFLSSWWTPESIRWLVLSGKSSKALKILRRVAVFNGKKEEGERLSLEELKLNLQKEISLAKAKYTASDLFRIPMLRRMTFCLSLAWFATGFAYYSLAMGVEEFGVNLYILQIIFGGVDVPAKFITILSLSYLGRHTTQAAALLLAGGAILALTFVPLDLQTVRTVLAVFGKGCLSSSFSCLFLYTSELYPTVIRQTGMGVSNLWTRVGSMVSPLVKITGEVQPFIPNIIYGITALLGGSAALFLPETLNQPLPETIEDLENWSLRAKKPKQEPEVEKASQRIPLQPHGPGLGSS

[4] = tested on: H526 cells; experiment: Cell cycle by EdU flow cytometry (nocodazole release, time course, cisplatin combination); format: cell-based, human; details: 300 nM
Procedure: The H526 human lung carcinoma cell line was grown in RPMI-1640/1× Glutamax/10% fetal bovine serum and was plated at 200,000 cells/well in Corning 6 well tissue culture treated plates. Cells were incubated at 37° C. for 24 hours prior to addition of 50 ng/mL nocodazole to arrest the cells in G2/M. One plate was untreated for comparison. After 16 hours, the asynchronous well and one synchronized well were collected. […] Cells were incubated with 10 μM EdU for 1 hour prior to collected and were then fixed in 1% paraformaldehyde. Cells were incubated with Pacific blue azide dye as described by Thermo Scientific. Cells were then incubated with FarRed dye and RNase. Cells were analyzed on a BD Celesta and data compiled using FloJo and GraphPad (FIG. 23). Cells survived slightly better with lower nocodazole dose (50 vs 100 ng/mL) but there was still cell death observed, particularly following S phase after release.
The H526 human lung carcinoma cell line was grown in RPMI-1640/1× Glutamax/10% fetal bovine serum and was plated at 200,000 cells/well in Corning 6 cm tissue culture treated plates. […] Cells were treated for the indicated amount of time, with 10 μM EdU added for the last hour of treatment. Cells were collected and fixed in 1% paraformaldehyde. Cells were incubated with Alexa 488 azide dye as described by Thermo Scientific. Cells were then incubated with FarRed dye and RNase. Cells were analyzed on a BD Celesta and data compiled using FloJo and GraphPad (FIG. 24).
The H526 human lung carcinoma cell line was grown in RPMI-1640/1× Glutamax/10% fetal bovine serum and was plated at 200,000 cells/well in Corning 6 cm tissue culture treated plates. Cells were incubated at 37° C. for 24 hours prior to addition of the first treatment. […] Cells were treated to 24 hours post-initial treatment, with 10 μM EdU added at hour 23 (FIG. 28A). Cells were collected and fixed in 1% paraformaldehyde. Cells were incubated with pacific blue azide dye as described by Thermo Scientific. Cells were then incubated with antibody against γ-H2AX at a ratio of 1:50 before incubation with FarRed dye and RNase. Cells were analyzed on a BD Celesta and data compiled using FloJo and GraphPad.

[5] = tested on: COV318 cells; experiment: CellTiter Glo cell proliferation assay; format: cell-based, human; details: CCNE1 amplified, six days
Procedure: Plates were returned to the incubator for six additional days. On day six post dosing, plates were removed and treated with CellTiter Glo reagent following manufacturer's specifications. Plates were incubated 45 minutes at room temperature and run on Biotek luminometer with 1 sec/well detection. Results were converted to Microsoft Excel and transferred to Graphpad Prism for analysis. […] These cell types are distinguished by either gained of cyclin E1 expression or activation (Kuramochi) or intrinsic amplification of cyclin E1 (OVCAR-3, COV318).

[6] = Nonclinical pharmacokinetics (IV and PO); details: in vivo
Procedure: Nonclinical PK studies were conducted for single dose of Compound I in rats, mice, and dogs, and for repeated doses of Compound I in rats and dogs. […] The relationship between dose level and systemic exposure was generally similar in male and female animals.

SMILES: NS(=O)(=O)c1ccc(Nc2ncc3cc4n(c3n2)C2(CCCCC2)C(=O)NN4)cc1 [Compound I]
- Solubility ([1]; 2-Methyl-THF): <10000 µg/mL
- Solubility ([1]; 2-Propanol): <10000 µg/mL
- Solubility ([1]; 2-Propanol:Water (80:20 % v/v)): <10000 µg/mL
- Solubility ([1]; Acetone): <10000 µg/mL
- Solubility ([1]; Anisole): <10000 µg/mL
- Solubility ([1]; Ethanol): <10000 µg/mL
- Solubility ([1]; Ethyl Acetate): <10000 µg/mL
- Solubility ([1]; Methylethyl Ketone): <10000 µg/mL
- Solubility ([1]; N,N-dimethylacetamide, organic solvent or mixture, thermodynamic from solid, read-out: Solubility): 22000 µg/mL (≈ 51.5 mM)
- Solubility ([1]; Tetrahydrofuran): <10000 µg/mL
- Solubility ([1]; Toluene): <10000 µg/mL
- Solubility ([1]; dimethylsulfoxide, organic solvent or mixture, thermodynamic from solid, read-out: Solubility): 88000 µg/mL (≈ 206 mM)
- caspase 3/7 activation ([2]; 24 hours): no appreciable caspase 3/7 activation
- IC50 ([2]; 72 hours): 0.129 µM
- IC50 ([2]; Homo sapiens, NCI-H526, 48 h, 48 hours): 0.181 µM
- IC50 ([2]; Homo sapiens, NCI-H526, 72 h, 72 hours): 0.116 µM
- Maximum Percent inhibition ([3]; OAT3, HEK293 cells): 86%
- IC50 ([3]; OAT3, HEK293 cells, read-out: IC50): 4.01 µM
- IC50 ([3]; read-out: OAT3 IC50): 4.01 µM
- S phase entry after nocodazole release [4]: slower to enter S phase
- cells in G1 phase compared with PF-07104091 ([4]; 24 hours): Substantially fewer H526 cells treated with Compound I were in G1 phase
- cells in G2/M phase compared to control ([4]; 24 hours): increase of cells in G2/M phase
- cells in S phase compared with PF-07104091 ([4]; 48 hours): substantially fewer H526 cells treated with Compound I were in S phase
- cell viability compared with palbociclib [5]: potently decreases cell viability
- half-life ([6]; dog, dogs): ≤ 360 min
- Tmax ([6]; dog, iv, dogs, read-out: Tmax after IV dosing): ≤ 15 min
- Tmax ([6]; dog, po, dogs, read-out: Tmax after PO dosing): 72 to 102 min
- Tmax ([6]; mouse, iv, mice, read-out: Tmax after IV dosing): ≤ 15 min
- Tmax ([6]; mouse, po, mice, read-out: Tmax after PO dosing): 15 to 240 min
- Tmax ([6]; rat, iv, rats, read-out: Tmax after IV dosing): ≤ 15 min
- Tmax ([6]; rat, po, rats, read-out: Tmax after PO dosing): 15 to 30 min

Source: patent US20250199015A1, “CYCLIN-DEPENDENT KINASE 2 INHIBITORS FOR MEDICAL TREATMENT” (INCYCLIX BIO, LLC, priority 2022, published 2025)
